Assay results reported in patent US20130116241A1, “NOVEL INHIBITOR COMPOUNDS OF PHOSPHODIESTERASE TYPE 10A” (AbbVie Inc., priority 2011, published 2013).

molecular target: human PDE10A (UniProt Q9Y233); test: Measurement of PDE activity (recombinant enzyme, HTRF cAMP kit); format: biochemical; settings: Table 1, substrate 20 nM for PDE10, 60 minutes at 29 C, read-out: IC50
Protocol: The recombinant PDE proteins are used in in vitro enzymatic reaction for measurement of PDE activity. These recombinant proteins, including PDE10A (human, rat and mouse PDE10) and isoforms of PDEs 1, 3, 4, and 5, were purchased from commercial vendor BPS Bioscience. The enzymatic activity of PDEs was determined by cAMP measurement kit from CisBio (IBA) using HTRF technology.
The PDE enzymatic reaction was carried out in assay buffer (20 mM Tris-HCl pH7.5, 10 mM MgCl2, 0.1% bovine serum albumin) containing enzyme and substrate. The PDE enzymes concentration ranged from 10 pM-250 pM, depending on each enzyme's specific activity. The substrate cyclic nucleotide (cAMP or cGMP) concentration used in the assay was 20 nM for PDE10, and 100 nM for other PDEs. The inhibitory effect of compound was determined by incubating various concentration of inhibitor in the enzymatic assay. Typically, compound was serial diluted in DMSO then further diluted in assay buffer. Next, the compound at varying concentration was mixed with PDE enzyme. The reaction was initiated by addition of cyclic nucleotide substrate, and incubated for 60 minutes at 29 C. The reaction was stopped by addition of lysis buffer from assay kit. The cAMP-d2 and anti-cAMP cryptate in the lysis buffer detected the level of cAMP left from the PDE hydrolysis reaction. The PDE activity is reversely correlated with the amount of cAMP left in the reaction and can be converted to the percent activity of an uninhibited control (100%). Thus, IC50 value of inhibitor can be obtained by plotting inhibitor concentration against PDE activity at that concentration.

human PDE10A, sequence (Q9Y233 290-1055 limits assumed): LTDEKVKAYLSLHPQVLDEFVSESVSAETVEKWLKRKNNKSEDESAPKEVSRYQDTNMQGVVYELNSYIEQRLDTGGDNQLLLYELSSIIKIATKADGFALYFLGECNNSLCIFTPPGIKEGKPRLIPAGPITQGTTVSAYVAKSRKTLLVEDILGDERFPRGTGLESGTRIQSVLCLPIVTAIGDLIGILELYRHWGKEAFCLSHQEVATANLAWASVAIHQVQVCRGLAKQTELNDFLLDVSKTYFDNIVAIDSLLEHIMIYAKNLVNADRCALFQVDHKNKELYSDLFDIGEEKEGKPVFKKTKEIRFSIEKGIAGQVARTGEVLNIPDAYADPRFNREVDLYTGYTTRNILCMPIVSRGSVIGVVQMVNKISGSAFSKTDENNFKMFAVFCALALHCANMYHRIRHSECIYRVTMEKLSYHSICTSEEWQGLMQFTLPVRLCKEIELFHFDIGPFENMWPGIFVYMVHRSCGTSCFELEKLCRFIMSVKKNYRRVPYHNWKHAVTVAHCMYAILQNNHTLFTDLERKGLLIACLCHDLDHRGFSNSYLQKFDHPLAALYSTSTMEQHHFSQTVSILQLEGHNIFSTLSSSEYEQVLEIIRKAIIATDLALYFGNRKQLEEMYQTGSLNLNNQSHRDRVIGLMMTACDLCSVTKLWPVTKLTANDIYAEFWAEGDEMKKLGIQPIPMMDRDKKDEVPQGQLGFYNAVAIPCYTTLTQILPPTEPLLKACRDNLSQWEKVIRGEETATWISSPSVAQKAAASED

IC50 | Compound
< 100 nM | O=c1c2c(N3CCC4(COC4)C3)cccc2ccn1C1CC1c1ccc2ccccc2n1 (single isomer, unassigned) [Example 258, anti (−) 2-(2-(quinolin-2-yl)cyclopropyl)-8-(2-oxa-6-azaspiro[3.4]octan-6-yl)isoquinolin-1(2H)-one]
< 100 nM | O=c1c2c(N3CC4COCC4C3)cccc2ccn1C1CC1c1ccc2ccccc2n1 (single isomer, unassigned) [Example 259, anti (−) 8-(dihydro-1H-furo[3,4-c]pyrrol-5(3H,6H,6aH)-yl)-2-(2-(quinolin-2-yl)cyclopropyl)isoquinolin-1(2H)-one]
< 100 nM | O=c1c2c(N3CCC(F)(F)CC3)cccc2ccn1C1CC1c1ccc2ccccc2n1 (single isomer, unassigned) [Example 260, anti (−) 8-(4,4-difluoropiperidin-1-yl)-2-(2-(quinolin-2-yl)cyclopropyl)isoquinolin-1(2H)-one]
< 100 nM | COc1ccc(-c2cccc3ccn(C4CC4c4ccc5ccccc5n4)c(=O)c23)cc1 (single isomer, unassigned) [Example 270, anti (−) 8-(4-methoxyphenyl)-2-(2-(quinolin-2-yl)cyclopropyl)isoquinolin-1(2H)-one]
< 100 nM | O=c1c2c(-c3cncnc3)cccc2c(Cl)cn1C1CC1c1ccc2ccccc2n1 (single isomer, unassigned) [Example 276, anti (−)-4-chloro-8-(pyrimidin-5-yl)-2-(2-(quinolin-2-yl)cyclopropyl)isoquinolin-1(2H)-one]
< 100 nM | O=c1c2c(-c3ccncc3)cccc2ccn1C1CC1c1ccc2ccccc2n1 (single isomer, unassigned; (+)) [Example 222a, (+) 8-(pyridin-4-yl)-2-(2-(quinolin-2-yl)cyclopropyl)isoquinolin-1(2H)-one]
< 100 nM | O=c1c2c(NC3COC3)cccc2ccn1C1CC1c1ccc2ccccc2n1 (single isomer, unassigned; (+)) [Example 235a, (+) anti 8-(oxetan-3-ylamino)-2-(2-(quinolin-2-yl)cyclopropyl)isoquinolin-1(2H)-one]
100 to 200 nM | O=c1c2c(-c3cccnc3)cccc2ccn1C1CC1c1ccc2ccccc2n1 (single isomer, unassigned; (+)) [Example 239a, (+) anti 8-(pyridin-3-yl)-2-(2-(quinolin-2-yl)cyclopropyl)isoquinolin-1(2H)-one]
< 100 nM | O=c1c2c(-c3ccncc3)cccc2ccn1C1CC1c1ccc2ccccc2n1 (single isomer, unassigned; (-)) [Example 222b, (−) 8-(pyridin-4-yl)-2-(2-(quinolin-2-yl)cyclopropyl)isoquinolin-1(2H)-one]
< 100 nM | O=c1c2c(-c3cccnc3)cccc2ccn1C1CC1c1ccc2ccccc2n1 (single isomer, unassigned; (-)) [Example 239b, (−) anti 8-(pyridin-3-yl)-2-(2-(quinolin-2-yl)cyclopropyl)isoquinolin-1(2H)-one]
< 100 nM | O=c1c2c(-c3ccncc3)csc2c(-c2ccncc2)nn1CCc1ccc2ccccc2n1 [Example 1, 3,7-Di(pyridin-4-yl)-5-[2-(quinolin-2-yl)ethyl]thieno[2,3-d]pyridazin-4(5H)-one]
< 100 nM | O=c1c2ccsc2c(-c2ccncc2)nn1CCc1ccc2ccccc2n1 [Example 2, 7-(Pyridin-4-yl)-5-[2-(quinolin-2-yl)ethyl]thieno[2,3-d]pyridazin-4(5H)-one]
< 100 nM | O=c1c2c(-c3ccncc3)csc2cnn1CCc1ccc2ccccc2n1 [Example 3, 3-(Pyridin-4-yl)-5-[2-(quinolin-2-yl)ethyl]thieno[2,3-d]pyridazin-4(5H)-one]
< 100 nM | O=c1c2c(-c3ccncc3)csc2c(-c2ccncc2)nn1CCc1ccccn1 [Example 5, 3,7-Di(pyridin-4-yl)-5-[2-(pyridin-2-yl)ethyl]thieno[2,3-d]pyridazin-4(5H)-one]
200 to 500 nM | Cc1ccc(-c2csc3cnn(CCc4ccc5ccccc5n4)c(=O)c23)cc1 [Example 7, 3-(4-methylphenyl)-5-[2-(quinolin-2-yl)ethyl]thieno[2,3-d]pyridazin-4(5H)-one]
< 100 nM | CC(C)c1ccc(-c2csc3cnn(CCc4ccc5ccccc5n4)c(=O)c23)cc1 [Example 8, 3-[4-(propan-2-yl)phenyl]-5-[2-(quinolin-2-yl)ethyl]thieno[2,3-d]pyridazin-4(5H)-one]
< 100 nM | N#Cc1ccc(-c2csc3cnn(CCc4ccc5ccccc5n4)c(=O)c23)cc1 [Example 10, 4-{4-oxo-5-[2-(quinolin-2-yl)ethyl]-4,5-dihydrothieno[2,3-d]pyridazin-3-yl}benzonitrile]
100 to 200 nM | COc1ccc(-c2csc3cnn(CCc4ccc5ccccc5n4)c(=O)c23)cc1 [Example 11, 3-(4-methoxyphenyl)-5-[2-(quinolin-2-yl)ethyl]thieno[2,3-d]pyridazin-4(5H)-one]

IC50 | Compound
< 100 nM | O=c1c2c(-c3ccc(F)cc3)csc2cnn1CCc1ccc2ccccc2n1 [Example 12, 3-(4-fluorophenyl)-5-[2-(quinolin-2-yl)ethyl]thieno[2,3-d]pyridazin-4(5H)-one]
200 to 500 nM | N#CCc1ccc(-c2csc3cnn(CCc4ccc5ccccc5n4)c(=O)c23)cc1 [Example 15, (4-{4-oxo-5-[2-(quinolin-2-yl)ethyl]-4,5-dihydrothieno[2,3-d]pyridazin-3-yl}phenyl)acetonitrile]
< 100 nM | O=c1c2c(-c3ccc(O)cc3)csc2cnn1CCc1ccc2ccccc2n1 [Example 16, 3-(4-hydroxyphenyl)-5-[2-(quinolin-2-yl)ethyl]thieno[2,3-d]pyridazin-4(5H)-one]
100 to 200 nM | O=c1c2c(-c3ccccc3Cl)csc2cnn1CCc1ccc2ccccc2n1 [Example 17, 3-(2-chlorophenyl)-5-[2-(quinolin-2-yl)ethyl]thieno[2,3-d]pyridazin-4(5H)-one]
200 to 500 nM | Cc1ccccc1-c1csc2cnn(CCc3ccc4ccccc4n3)c(=O)c12 [Example 18, 3-(2-methylphenyl)-5-[2-(quinolin-2-yl)ethyl]thieno[2,3-d]pyridazin-4(5H)-one]
< 100 nM | O=c1c2c(-c3ccccc3F)csc2cnn1CCc1ccc2ccccc2n1 [Example 20, 3-(2-fluorophenyl)-5-[2-(quinolin-2-yl)ethyl]thieno[2,3-d]pyridazin-4(5H)-one]
< 100 nM | O=c1c2c(-c3ccccc3O)csc2cnn1CCc1ccc2ccccc2n1 [Example 23, 3-(2-hydroxyphenyl)-5-[2-(quinolin-2-yl)ethyl]thieno[2,3-d]pyridazin-4(5H)-one]
200 to 500 nM | COc1cccc(-c2csc3cnn(CCc4ccc5ccccc5n4)c(=O)c23)c1 [Example 26, 3-(3-methoxyphenyl)-5-[2-(quinolin-2-yl)ethyl]thieno[2,3-d]pyridazin-4(5H)-one]
< 100 nM | N#Cc1cccc(-c2csc3cnn(CCc4ccc5ccccc5n4)c(=O)c23)c1 [Example 29, 3-[4-Oxo-5-(2-quinolin-2-yl-ethyl)-4,5-dihydro-thieno[2,3-d]pyridazin-3-yl}-benzonitrile]
100 to 200 nM | O=c1c2c(-c3cccc(F)c3)csc2cnn1CCc1ccc2ccccc2n1 [Example 30, 3-(3-fluorophenyl)-5-[2-(quinolin-2-yl)ethyl]thieno[2,3-d]pyridazin-4(5H)-one]
100 to 200 nM | O=c1c2c(-c3cccc(O)c3)csc2cnn1CCc1ccc2ccccc2n1 [Example 31, 3-(3-hydroxyphenyl)-5-[2-(quinolin-2-yl)ethyl]thieno[2,3-d]pyridazin-4(5H)-one]
200 to 500 nM | CN(C)C(=O)c1cccc(-c2csc3cnn(CCc4ccc5ccccc5n4)c(=O)c23)c1 [Example 32, N,N-dimethyl-3-{4-oxo-5-[2-(quinolin-2-yl)ethyl]-4,5-dihydrothieno[2,3-d]pyridazin-3-yl}benzamide]
100 to 200 nM | O=c1c2c(-c3cccs3)csc2cnn1CCc1ccc2ccccc2n1 [Example 34, 5-[2-(quinolin-2-yl)ethyl]-3-(thiophen-2-yl)thieno[2,3-d]pyridazin-4(5H)-one]
< 100 nM | O=c1c2c(-c3ccc4cc[nH]c4c3)csc2cnn1CCc1ccc2ccccc2n1 [Example 36, 3-(1H-indol-6-yl)-5-[2-(quinolin-2-yl)ethyl]thieno[2,3-d]pyridazin-4(5H)-one]
< 100 nM | O=c1c2c(-c3cncnc3)csc2cnn1CCc1ccc2ccccc2n1 [Example 37, 3-(pyrimidin-5-yl)-5-[2-(quinolin-2-yl)ethyl]thieno[2,3-d]pyridazin-4(5H)-one]
200 to 500 nM | COc1ncccc1-c1csc2cnn(CCc3ccc4ccccc4n3)c(=O)c12 [Example 38, 3-(2-methoxypyridin-3-yl)-5-[2-(quinolin-2-yl)ethyl]thieno[2,3-d]pyridazin-4(5H)-one]
< 100 nM | O=c1c2c(-c3cccnc3)csc2cnn1CCc1ccc2ccccc2n1 [Example 39, 3-(pyridin-3-yl)-5-[2-(quinolin-2-yl)ethyl]thieno[2,3-d]pyridazin-4(5H)-one]
< 100 nM | O=c1c2c(-c3ccoc3)csc2cnn1CCc1ccc2ccccc2n1 [Example 41, 3-(furan-3-yl)-5-[2-(quinolin-2-yl)ethyl]thieno[2,3-d]pyridazin-4(5H)-one]
